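Grown in 96-well plates, cells were treated for 48 hours with each compound at five concentrations. Insufficient inhibition: endpoint recorded as highest concentration tested. Here, GI50 denotes the concentration required for 50% inhibition of growth.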 Activity calls are given as the source filed them. No stated cut-off is given here; in the data, active = GI50 up to about 1.1 µM and inactive = higher.

This is an account of results in ChEMBL document CHEMBL1201862, “PubChem BioAssay data set” (2004).

Some test systems named below: KM12; HCT-116; OVCAR-8; SF-268; NCI-H460; CCRF-CEM; OVCAR-3; Hs-578T; SNB-19; NCI-H226; HOP-62; ACHN; A498; SK-MEL-28; TK-10; HOP-92; MDA-N; IGROV-1; A549; RXF 393.
Experiment in all cases: NCI-60 cell line screen, 48 h

Regarding `O=C(O)C1(C(=O)O)CCN(S(=O)(=O)c2ccccc2)CC1`, the GI50 with KM12, in the assay on HCT-116, in the assay on OVCAR-8, with SF-268, with NCI-H460 and in the assay on CCRF-CEM was > 100 µM (inactive) each time. Moreover, the GI50 in the assay on OVCAR-3, in the assay with Hs-578T, in the assay on SNB-19, with NCI-H226, in the assay on HOP-62 and in the assay with ACHN was > 100 µM (inactive) each time. Further, the GI50 in the assay with A498, in the assay with SK-MEL-28, with TK-10, with HOP-92, in the assay with MDA-N and with IGROV-1 was > 100 µM (inactive) throughout. In addition, the GI50 with A549 and in the assay with RXF 393 was > 100 µM (inactive) each time.

Turning to `Cc1nc(N(C(C)C)C(C)C)c(C(C)C)o1`, the GI50 in the assay on KM12, in the assay with HCT-116, in the assay on OVCAR-8, in the assay with SF-268, in the assay on NCI-H460 and in the assay on CCRF-CEM was > 100 µM (inactive) throughout. Also, the GI50 in the assay with OVCAR-3, in the assay with Hs-578T, in the assay on SNB-19, in the assay on NCI-H226, with HOP-62 and with ACHN was > 100 µM (inactive) throughout. The GI50 in the assay on A498, with SK-MEL-28, with TK-10, with HOP-92, in the assay on MDA-N and in the assay on IGROV-1 was > 100 µM (inactive) each time. Further, the GI50 with A549 and in the assay with RXF 393 was > 100 µM (inactive) throughout.

Consider `Cc1nc2ccc(Cl)cc2c2c1CCO2`, for which the GI50 in the assay with KM12 is > 100 µM (inactive); in the assay with HCT-116 it was 97.5 µM (inactive); with OVCAR-8, 99.5 µM (inactive); in the assay with SF-268, 68.9 µM (inactive); with NCI-H460, 54.2 µM (inactive); in the assay on CCRF-CEM, 57.8 µM (inactive). Also, the GI50 is 91.6 µM (inactive) with OVCAR-3; > 100 µM (inactive) in the assay on Hs-578T; 60.4 µM (inactive) in the assay with SNB-19; 94.4 µM (inactive) with NCI-H226; > 100 µM (inactive) in the assay with HOP-62; 86.5 µM (inactive) in the assay on ACHN. Also, the GI50 is 71 µM (inactive) with A498; > 100 µM (inactive) in the assay on SK-MEL-28; 64.7 µM (inactive) in the assay on TK-10; 80 µM (inactive) in the assay on HOP-92; 36.3 µM (inactive) in the assay with MDA-N; 56.8 µM (inactive) in the assay with IGROV-1. Moreover, the GI50 with A549 was 63 µM (inactive); in the assay on RXF 393 it was 24.4 µM (inactive).

For the compound `CC(C)NC(=O)OCc1c(COC(=O)NC(C)C)c(-c2ccc[n+](COC(=O)C(C)C)c2)n2c1CCC2`, the GI50 is > 100 µM (inactive) in the assay with KM12; 54.7 µM (inactive) with HCT-116; > 72.8 µM (inactive) in the assay on OVCAR-8; 52.4 µM (inactive) with SF-268; 21.6 µM (inactive) in the assay with NCI-H460; 17.2 µM (inactive) in the assay on CCRF-CEM. Further, the GI50 was > 67.8 µM (inactive) with OVCAR-3; > 100 µM (inactive) with Hs-578T; > 100 µM (inactive) in the assay with SNB-19; > 100 µM (inactive) with NCI-H226; > 63.5 µM (inactive) in the assay with HOP-62; 29.1 µM (inactive) in the assay on ACHN. Moreover, the GI50 was 23.1 µM (inactive) in the assay on A498; > 100 µM (inactive) in the assay with SK-MEL-28; > 91.4 µM (inactive) in the assay on TK-10; 44.1 µM (inactive) in the assay on HOP-92; > 100 µM (inactive) in the assay on MDA-N; > 67.6 µM (inactive) in the assay with IGROV-1. Also, the GI50 with A549 is > 91.4 µM (inactive); in the assay with RXF 393, 42.4 µM (inactive).

Regarding `CC(=O)C1=C(C)N2C(=NC3=C(CCc4ccccc43)C2c2ccc(Cl)cc2)S1` (stereo not given), the GI50 in the assay with KM12 is 33.3 µM (inactive); in the assay on HCT-116 it was 5.85 µM (inactive); in the assay with OVCAR-8 it was > 100 µM (inactive); in the assay on SF-268 it was > 87.9 µM (inactive); in the assay with NCI-H460, 16.1 µM (inactive); with CCRF-CEM, 8.41 µM (inactive). The GI50 was > 38.7 µM (inactive) in the assay with OVCAR-3; > 64 µM (inactive) in the assay with Hs-578T; > 100 µM (inactive) in the assay with SNB-19; > 100 µM (inactive) in the assay with NCI-H226; > 100 µM (inactive) with HOP-62; > 100 µM (inactive) in the assay on ACHN. The GI50 in the assay on A498 was 20.7 µM (inactive); in the assay on SK-MEL-28, > 100 µM (inactive); with TK-10 it was > 100 µM (inactive); in the assay on HOP-92, 31 µM (inactive); with MDA-N, 46.8 µM (inactive); in the assay on IGROV-1, 12.3 µM (inactive). Further, the GI50 was 53.8 µM (inactive) with A549 and 5.56 µM (inactive) in the assay on RXF 393.

For the compound `CC(=O)Nc1cc2cc(NS(=O)(=O)c3cc(C(F)(F)F)cc(C(F)(F)F)c3)ccc2oc1=O`, the GI50 was > 100 µM (inactive) in the assay with KM12; > 100 µM (inactive) in the assay on HCT-116; 34.3 µM (inactive) in the assay on OVCAR-8; 32.6 µM (inactive) with SF-268; > 100 µM (inactive) in the assay with NCI-H460; > 100 µM (inactive) with CCRF-CEM. For the same compound, the GI50 with OVCAR-3 was 52.1 µM (inactive); in the assay on Hs-578T, > 100 µM (inactive); with SNB-19 it was 47.2 µM (inactive); with NCI-H226 it was > 100 µM (inactive); in the assay on HOP-62 it was > 100 µM (inactive); in the assay with ACHN, > 100 µM (inactive). Moreover, the GI50 with A498, in the assay on SK-MEL-28, in the assay with TK-10, in the assay on HOP-92, with MDA-N and in the assay on IGROV-1 was > 100 µM (inactive) each time. The figures for the GI50 in the assay with A549 and in the assay on RXF 393 were > 100 µM (inactive) and 0.016 µM (active), respectively.

With `COc1cccc2c1cc([N+](=O)[O-])c1c(C(=O)O)cc3c(c12)OCO3` [ARISTOLOCHIC ACID], the GI50 is 27.3 µM (inactive) in the assay with KM12; 29.9 µM (inactive) with HCT-116; 28.7 µM (inactive) with OVCAR-8; 33.8 µM (inactive) with SF-268; 27.7 µM (inactive) in the assay with NCI-H460; 20 µM (inactive) with CCRF-CEM. For the same compound, the GI50 in the assay on OVCAR-3 is 33.9 µM (inactive); in the assay with Hs-578T it was 52.8 µM (inactive); in the assay on SNB-19, 37.5 µM (inactive); with NCI-H226 it was 33.7 µM (inactive); in the assay on HOP-62 it was 23.7 µM (inactive); with ACHN, 41.6 µM (inactive). Also, the GI50 in the assay with A498 was 29.4 µM (inactive); in the assay on SK-MEL-28 it was 41.9 µM (inactive); with TK-10, 46.9 µM (inactive); in the assay on HOP-92, > 78 µM (inactive); in the assay on MDA-N it was > 100 µM (inactive); with IGROV-1, 29.4 µM (inactive). For the same compound, the GI50 in the assay with A549 is 45.9 µM (inactive); in the assay on RXF 393, 23.4 µM (inactive).
